Laboratory results from patent US20260232825A1, “LINKER-DRUG MOLECULE AND ANTIBODY DRUG CONJUGATE, PREPARATION METHOD THEREFOR AND USE THEREOF” (SHANGHAI ESCUGEN BIOTECHNOLOGY CO., LTD., priority 2023, published 2026).
Like-named read-outs stand apart in the source and are kept apart here.

Columns and labels:
[1] = test system: B16F10-hClaudin18.2 cells; assay: Immunogenic cell death of B16F10-hClaudin18.2 cells (Calreticulin/PI FACS); type: cell-based; conditions: small molecular drug load 10 nM, 48 hours
Experimental: The B16F10-hClaudin18.2 cells were resuscitated and cultured in a medium of DMEM (Thermo, cat #: 10569044)^+10% FBS (Thermo, Cat #: 10099-141C)+0.5 μg/mL Puromycin to subject to adherent culture at 37° C. in 5% CO2 incubator. When the cell confluence was greater than 80%, the cells were passaged at a ratio of 1:10 to 1:20 every 3-4 days.
When the cells grew to a confluence of about 80%, the cells were digested by a digestive solution of recombinant enzyme (TrypLE™ Express Enzyme, Thermo, cat #: 12605028). Then the cells were resuspended with DMEM+10% FBS, and an appropriate volume was taken for counting. The cell density was adjusted to 1×10^4 cells/mL, and inoculated into 96-well cell plate at 100 μL/well to culture overnight at 37° C. in 5% CO2 incubator. The next day, the ADC drug was diluted with DMEM+10% FBS medium to a final concentration of 750 nM, the small molecule toxin Exatecan was diluted to a final concentration of 10 nM, and sample concentration of 0 was set as blank control. The diluted samples were respectively added to 96-well cell culture plate containing cells at 100 μL/well to incubate at 37° C. in 5% CO2 incubator for 48 hours. […]

[2] = test system: NUGC4-hClaudin18.2 cells; assay: In vitro tumor cell killing activity, NUGC4-hClaudin18.2 cell line (CCK-8); type: cell-based; conditions: Homo sapiens, 120 h, read-out: IC50 values (nM)
Experimental: When the cell confluence was greater than 80%, the cells were passaged at a ratio of 1:3 to 1:10 every 3-4 days.
NUGC4-hClaudin18.2 cells were digested by a digestive solution of recombinant enzyme (TrypLE™ Express Enzyme). […] The cell density was adjusted to 3×10^4 cells/mL, inoculating into 96-well cell culture plate at 100 μL/well. The cells were cultured overnight at 37° C. in 5% CO2 incubator. The next day, 9D1 ADC and small molecular toxin were diluted 5 times in a series from 1000 nM (final concentration, 500 nM) with a total of 7-8 concentration points, simultaneously setting a negative control with a sample concentration of 0, and a blank control containing only medium without cells. The diluted sample was added to 96-well cell culture plate containing cells at 100 μL/well (two duplicated wells), then incubating at 37° C. in 5% CO2 incubator for 120 hours. 20 μL of CCK-8 detection reagent (Dongren Chemical, CAS #CK04) was added to each well, incubating at 37° C. for 3-4 hours. The OD values of each well in the ELISA plate were measured at a wavelength of 450 nm and a reference wavelength of 630 nm on a multifunctional enzyme-linked immunosorbent assay (ELISA) reader, for each well, OD value=0D450 nm−OD630 nm. The cell viability of the negative control was set to 100%, and the cell viability (%) of the experimental wells was calculated according to the following formula. […]

[3] = test system: MC38-hClaudin18.2 cells; assay: In vitro tumor cell killing activity, MC38-hClaudin18.2 cell line (AlamarBlue); type: cell-based, mouse
Experimental: 9D1 antibody-drug conjugates prepared in the previous Experimental Examples and Comparative Examples were used for performing in vitro killing test on MC38 cell lines stably expressing human Claudin18.2. MC38-hClaudin18.2 cells were inoculated into a 96-well cell culture plate at 3000 cells/well, adding gradient diluted 9D1 ADCs next day to culture for 48-72 hours. The fluorescence values of each experimental well were detected by AlamarBlue reagent (ThermoFisher, item number DAL1100), and the cell viability was calculated.
When the cell confluence was greater than 80%, the cells were passaged at a ratio of 1:10 to 1:20 every 3 days.
MC38-hClaudin18.2 cells were digested by a digestive solution of recombinant enzyme (TrypLE™ Express Enzyme). […] The cell density was adjusted to 3×10^4 cells/mL, inoculating into 96-well cell culture plate at 100 μL/well. The cells were cultured overnight at 37° C. in 5% C02 incubator. The next day, the test drug was diluted 10 times in a series with a total of 7-8 concentration points, simultaneously setting a blank control with a sample concentration of 0. The diluted sample was added to 96-well cell culture plate containing cells at 100 μL/well, then incubating at 37° C. in 5% CO2 incubator for 48-72 hours. 20 μL of AlamarBlue detection reagent was added to each well, incubating at 37° C. for 4-6 hours, the fluorescence signal intensity was detected on a multifunctional enzyme-linked immunosorbent assay (ELISA) instrument with an excitation wavelength of 560 nm and an emission wavelength of 590 nm.
The cell viability of the blank control was set to 100%, and the cell viability (%) of the experimental well was calculated by the following formula: […]
The detected average cell viability was takedn as the y-axis, a sigmoid dose response (Variable Slope) method (GraphPad Prism software, GraphPad Software, San Diego, California) was used for nonlinear regression to obtain the inhibitory effect curves of cell proliferation, and the corresponding IC50 values (half maximum inhibition concentration) were calculated. […]

[4] = test system: HEK293-hClaudin18.2 cells; assay: In vitro cell killing activity, HEK293-hClaudin18.2 cell line (AlamarBlue); type: cell-based
Experimental: HEK293-hClaudin18.2 cells were cultured in DMEM medium containing 10% FBS, supplemented with 250 μg/mL G418 to subject to adherent culture at 37° C. in 5% CO2 incubator. When the cell confluence was greater than 80%, the cells were passaged at a ratio of 1:20 to 1:40 every 3 days.
HEK293-hClaudin18.2 cells were digested by a digestive solution of recombinant enzyme (TrypLE™ Express Enzyme). After counting, an appropriate amount of cells were taken to resuspend with DMEM+10% FBS. The cell density was adjusted to 2×10^4 cells/mL, inoculating into 96-well cell culture plate at 100 μL/well. The cells were cultured overnight at 37° C. in 5% CO2 incubator. The next day, 9D1 ADC and small molecular toxin were diluted 10 times in a series from 1000 nM (final concentration, 500 nM) with a total of 7-8 concentration points, simultaneously setting a negative control with a sample concentration of 0, and a blank control containing only same volume (200 μL/well) of medium without cells. The diluted sample was added to 96-well cell culture plate containing cells at 100 μL/well (two duplicated wells), then incubating at 37° C. in 5% CO2 incubator for 72 hours. The cell viability was detected by the AlamarBlue detection method mentioned above, then processing data to calculate the IC50 values, and the results are shown in Table 5 below.

[5] = test system: MC38 hClaudin18.2 tumor (high expression of p-gp); assay: Pharmacodynamics in p-gp mediated drug-resistant tumor bearing mouse model; type: in vivo; conditions: in words; ADC 10 mg/kg i.p. QW × 2, Tariquidar p.o. QD × 10
Experimental: Modeling and administration of tumor bearing mice: BALB/c Nude mice (female, 5-6 week old) were subcutaneously inoculated with MC38 hClaudin18.2 cells (1×10^6 cells in […]) on the ventral side. When the tumor volume increased to about 120 mm^3, the mice were randomly divided into groups and administered according to Table 10. The tumor and body weight were measured twice a week to calculate the tumor volumes (TV, mm^3) and plot the tumor growth curves. TV (mm^3)=(L×W^2)/2, wherein L represents tumor length, and W represents tumor width. GraphPad Prism software (GraphPad Software, San Diego, California) and XY mode were selected to plot the tumor growth curves and weight curves of mice, and the tumor volumes and weights were represented as mean±standard error.

Row | Structure (SMILES) | ratio of Calreticulin(+)/PI(−) cells [1] | IC50 [2] [nM] | IC50 ([3]; Mus musculus, read-out: IC50 values (nM), MC38-hClaudin18.2 cells, 48-72 hours, AlamarBlue) [nM] | IC50 ([3]; read-out: IC50 values, MC38-hClaudin18.2 cells, 48-72 hours, AlamarBlue) [nM] | IC50 ([4]; 72 h, read-out: IC50 values (nM), HEK293-hClaudin18.2 cells, 72 hours, AlamarBlue) [nM] | IC50 ([4]; read-out: IC50 values, HEK293-hClaudin18.2 cells, 72 hours, AlamarBlue) [nM] | tumor inhibitory effect [5]
1 | CC[C@@]1(O)C(=O)OCc2c1cc1n(c2=O)Cc2c-1nc1cc(F)c(C)c3c1c2[C@@H](NC(=O)CO)CC3 [Dxd] | significantly raised | – | – | – | – | – | –
2 | CC[C@@]1(O)C(=O)OCc2c1cc1n(c2=O)Cc2c-1nc1cc(F)c(C)c3c1c2[C@@H](N)CC3 [Exatecan] | significantly raised | 2.01 | 4.1 | 4.1 | 0.51 | 0.508 | –
3 | COc1cc2c(cc1OC)CN(CCc1ccc(NC(=O)c3cc(OC)c(OC)cc3NC(=O)c3cnc4ccccc4c3)cc1)CC2 [Tariquidar] | – | – | – | – | – | – | has no tumor inhibitory effect
